Laboratory results published in the NIST ThermoML archive (doi:10.1021/acs.jced.7b00584).
Numbers after ± are expanded uncertainties.

Legend:
[1] = Liquid, Ebulliometric method (Recirculating still)
[2] = Boiling temperature at pressure P; conditions: 101.3 kPa; Liquid; Ebulliometric method (Recirculating still)

vapor or sublimation pressure ([1]; 318.85 K)	vapor or sublimation pressure ([1]; 328.15 K)	SMILES	vapor or sublimation pressure ([1]; 479.1 K)	vapor or sublimation pressure ([1]; 489.25 K)	Boiling temperature at pressure P [2]	vapor or sublimation pressure ([1]; 450.25 K)	vapor or sublimation pressure ([1]; 462.65 K)
		OCCCCO [1,4-butanediol]	50 ± 1 kPa	70 ± 1 kPa	228.00 ± 0.11 °C		
50 ± 1 kPa	70 ± 1 kPa	C1CCOC1 [tetrahydrofuran]			65.97 ± 0.11 °C		
		O=C1CCCO1 [γ-butyrolactone]			204.00 ± 0.11 °C	50 ± 1 kPa	70 ± 1 kPa
